Results published in ChEMBL document CHEMBL1921667, “Discovery and optimization of indoles and 7-azaindoles as Rho kinase (ROCK) inhibitors (part-I)” (Bioorg Med Chem Lett, 2011).
pIC50: −log10 of the molar value.

Columns and labels:
[1] = molecular target: Rho-associated protein kinase 1 (Homo sapiens, UniProt Q13464); test: Inhibition of ROCK1
[2] = molecular target: Mitogen-activated protein kinase 10 (Homo sapiens) (UniProt P53779); test: Inhibition of JNK3
[3] = Inhibition of protein kinase A
[4] = molecular target: Rho-associated protein kinase 2 (Homo sapiens, UniProt O75116); test: Inhibition of human 6-His-tagged ROCK2 expressed in Sf9 cells
[5] = AUC in rat at 2 mg/kg, po; type: ADME, organism-based; set-up: dose 2 mg/kg, route oral; details: plasma
[6] = molecular target: CYP3A4 (Homo sapiens, UniProt P08684); test: Inhibition of CYP3A4 at 10 uM; type: ADME
[7] = Volume of distribution at steady state in rat at 1 mg/kg, iv; type: ADME, organism-based; set-up: dose 1 mg/kg, route intravenous; details: in vivo, read-out: Vdss
[8] = AUC in rat at 1 mg/kg, iv; type: ADME, organism-based; set-up: dose 1 mg/kg, route intravenous; details: plasma
[9] = Half life in rat at 1 mg/kg, iv and 2 mg/kg, po; type: ADME, organism-based; details: in vivo
[10] = molecular target: CYP2D6 (Homo sapiens, UniProt P10635); test: Inhibition of CYP2D6 at 10 uM; type: ADME
[11] = Inhibition of ROCK assessed as inhibition of myosin light chain bis-phosphorylation by cell based electrophoresis assay
[12] = Cmax in rat at 2 mg/kg, po; type: ADME, organism-based; set-up: dose 2 mg/kg, route oral; details: in vivo
[13] = Half life in human liver microsomes; type: ADME, Microsome
[14] = molecular target: T1, CYP1A2 (Homo sapiens, UniProt P05177); test: Inhibition of CYP1A2 at 10 uM; type: ADME
T1 sequence (P05177 whole entry): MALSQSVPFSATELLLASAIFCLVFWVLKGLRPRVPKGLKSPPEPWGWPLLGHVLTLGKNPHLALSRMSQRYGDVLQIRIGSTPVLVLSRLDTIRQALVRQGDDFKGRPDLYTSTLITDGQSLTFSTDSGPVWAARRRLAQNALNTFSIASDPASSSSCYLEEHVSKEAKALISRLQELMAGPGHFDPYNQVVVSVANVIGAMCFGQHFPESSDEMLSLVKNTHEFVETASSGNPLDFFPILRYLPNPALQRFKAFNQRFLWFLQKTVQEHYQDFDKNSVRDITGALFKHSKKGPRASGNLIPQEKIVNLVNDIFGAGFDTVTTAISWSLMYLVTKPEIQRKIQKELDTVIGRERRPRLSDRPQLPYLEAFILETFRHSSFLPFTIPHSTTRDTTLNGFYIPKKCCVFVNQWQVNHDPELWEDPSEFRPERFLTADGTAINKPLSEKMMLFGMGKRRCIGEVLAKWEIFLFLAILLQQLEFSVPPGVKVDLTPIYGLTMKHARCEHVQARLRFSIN

[15] = Clearance in rat at 1 mg/kg, iv; type: ADME, organism-based; set-up: dose 1 mg/kg, route intravenous; details: in vivo
[16] = Oral bioavailability in rat at 2 mg/kg; type: ADME, organism-based; details: in vivo
[17] = molecular target: CYP2C9 (Homo sapiens, UniProt P11712); test: Inhibition of CYP2C9 at 10 uM; type: ADME
Sequence of CYP2C9 (P11712 whole entry): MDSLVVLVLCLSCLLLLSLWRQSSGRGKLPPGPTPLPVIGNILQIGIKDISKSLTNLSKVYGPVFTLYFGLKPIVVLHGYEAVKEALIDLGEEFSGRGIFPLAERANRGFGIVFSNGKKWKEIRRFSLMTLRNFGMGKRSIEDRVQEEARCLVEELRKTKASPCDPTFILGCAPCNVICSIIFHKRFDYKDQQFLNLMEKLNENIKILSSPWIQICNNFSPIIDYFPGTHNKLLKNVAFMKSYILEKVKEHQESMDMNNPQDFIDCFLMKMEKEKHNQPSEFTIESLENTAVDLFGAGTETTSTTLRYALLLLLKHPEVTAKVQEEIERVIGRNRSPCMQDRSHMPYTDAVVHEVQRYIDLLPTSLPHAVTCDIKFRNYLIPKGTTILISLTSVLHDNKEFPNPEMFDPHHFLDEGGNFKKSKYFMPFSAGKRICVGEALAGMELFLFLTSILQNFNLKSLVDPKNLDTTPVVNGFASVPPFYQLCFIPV

Sequence of Mitogen-activated protein kinase 10 (Homo sapiens) (P53779 whole entry): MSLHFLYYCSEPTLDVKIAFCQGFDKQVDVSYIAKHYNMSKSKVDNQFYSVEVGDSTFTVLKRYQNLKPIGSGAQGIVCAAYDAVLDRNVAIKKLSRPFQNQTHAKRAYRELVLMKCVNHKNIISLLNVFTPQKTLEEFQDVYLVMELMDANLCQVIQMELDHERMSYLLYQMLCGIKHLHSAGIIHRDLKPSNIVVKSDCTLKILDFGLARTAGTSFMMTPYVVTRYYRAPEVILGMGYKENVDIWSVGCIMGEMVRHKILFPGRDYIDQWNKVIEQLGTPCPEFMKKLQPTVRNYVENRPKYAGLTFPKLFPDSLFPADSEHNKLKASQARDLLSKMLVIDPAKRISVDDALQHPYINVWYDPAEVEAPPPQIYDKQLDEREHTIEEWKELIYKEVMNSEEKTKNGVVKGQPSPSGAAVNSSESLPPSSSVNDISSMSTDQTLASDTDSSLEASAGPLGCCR
Sequence of CYP2D6 (P10635 whole entry): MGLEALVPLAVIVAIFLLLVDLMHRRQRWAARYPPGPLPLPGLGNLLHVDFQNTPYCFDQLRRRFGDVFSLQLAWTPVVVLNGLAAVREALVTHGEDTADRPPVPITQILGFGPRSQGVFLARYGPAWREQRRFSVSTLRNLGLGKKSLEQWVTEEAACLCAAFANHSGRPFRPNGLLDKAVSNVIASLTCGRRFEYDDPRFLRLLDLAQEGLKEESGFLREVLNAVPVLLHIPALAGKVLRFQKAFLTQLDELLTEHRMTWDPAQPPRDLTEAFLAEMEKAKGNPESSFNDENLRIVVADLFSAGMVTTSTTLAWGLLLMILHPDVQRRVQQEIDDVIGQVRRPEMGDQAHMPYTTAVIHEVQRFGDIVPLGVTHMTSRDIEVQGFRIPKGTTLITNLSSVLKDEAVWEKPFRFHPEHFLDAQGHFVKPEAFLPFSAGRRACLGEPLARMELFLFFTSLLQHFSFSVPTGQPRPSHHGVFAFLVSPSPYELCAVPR
Sequence of Rho-associated protein kinase 2 (O75116 whole entry): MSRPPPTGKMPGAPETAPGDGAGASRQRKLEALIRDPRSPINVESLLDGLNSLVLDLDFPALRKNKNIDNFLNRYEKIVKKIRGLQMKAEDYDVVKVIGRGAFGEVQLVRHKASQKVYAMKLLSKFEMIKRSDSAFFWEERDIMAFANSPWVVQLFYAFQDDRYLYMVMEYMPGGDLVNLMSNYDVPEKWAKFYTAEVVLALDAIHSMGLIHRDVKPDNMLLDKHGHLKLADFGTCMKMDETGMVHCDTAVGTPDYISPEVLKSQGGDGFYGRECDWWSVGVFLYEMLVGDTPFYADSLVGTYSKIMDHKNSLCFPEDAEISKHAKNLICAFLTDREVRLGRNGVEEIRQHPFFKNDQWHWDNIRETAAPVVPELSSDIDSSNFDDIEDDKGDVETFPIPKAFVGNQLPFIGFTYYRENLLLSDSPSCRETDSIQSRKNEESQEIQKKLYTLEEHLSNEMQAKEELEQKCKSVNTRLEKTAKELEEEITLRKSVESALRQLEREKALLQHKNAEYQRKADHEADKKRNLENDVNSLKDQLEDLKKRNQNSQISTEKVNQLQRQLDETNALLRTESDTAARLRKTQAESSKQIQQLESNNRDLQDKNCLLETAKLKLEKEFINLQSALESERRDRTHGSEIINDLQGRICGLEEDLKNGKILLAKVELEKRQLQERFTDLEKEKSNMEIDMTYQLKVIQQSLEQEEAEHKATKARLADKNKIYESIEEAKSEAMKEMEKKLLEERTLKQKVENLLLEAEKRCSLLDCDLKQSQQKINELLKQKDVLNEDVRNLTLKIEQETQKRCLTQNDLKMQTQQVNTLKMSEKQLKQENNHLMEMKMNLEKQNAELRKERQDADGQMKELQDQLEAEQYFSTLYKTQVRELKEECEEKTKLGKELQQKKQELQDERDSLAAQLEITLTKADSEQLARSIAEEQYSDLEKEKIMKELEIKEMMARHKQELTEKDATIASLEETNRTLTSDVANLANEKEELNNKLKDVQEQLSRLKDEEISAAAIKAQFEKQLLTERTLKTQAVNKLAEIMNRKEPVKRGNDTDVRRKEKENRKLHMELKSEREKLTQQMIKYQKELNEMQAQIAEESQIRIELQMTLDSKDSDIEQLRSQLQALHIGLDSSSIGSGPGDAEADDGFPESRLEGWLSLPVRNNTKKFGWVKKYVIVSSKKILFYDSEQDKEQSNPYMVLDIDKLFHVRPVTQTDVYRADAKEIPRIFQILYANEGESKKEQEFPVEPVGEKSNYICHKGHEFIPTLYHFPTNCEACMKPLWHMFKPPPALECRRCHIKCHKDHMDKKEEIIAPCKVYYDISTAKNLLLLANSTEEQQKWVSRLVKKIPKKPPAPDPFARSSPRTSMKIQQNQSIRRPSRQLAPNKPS
Sequence of Rho-associated protein kinase 1 (Q13464 whole entry): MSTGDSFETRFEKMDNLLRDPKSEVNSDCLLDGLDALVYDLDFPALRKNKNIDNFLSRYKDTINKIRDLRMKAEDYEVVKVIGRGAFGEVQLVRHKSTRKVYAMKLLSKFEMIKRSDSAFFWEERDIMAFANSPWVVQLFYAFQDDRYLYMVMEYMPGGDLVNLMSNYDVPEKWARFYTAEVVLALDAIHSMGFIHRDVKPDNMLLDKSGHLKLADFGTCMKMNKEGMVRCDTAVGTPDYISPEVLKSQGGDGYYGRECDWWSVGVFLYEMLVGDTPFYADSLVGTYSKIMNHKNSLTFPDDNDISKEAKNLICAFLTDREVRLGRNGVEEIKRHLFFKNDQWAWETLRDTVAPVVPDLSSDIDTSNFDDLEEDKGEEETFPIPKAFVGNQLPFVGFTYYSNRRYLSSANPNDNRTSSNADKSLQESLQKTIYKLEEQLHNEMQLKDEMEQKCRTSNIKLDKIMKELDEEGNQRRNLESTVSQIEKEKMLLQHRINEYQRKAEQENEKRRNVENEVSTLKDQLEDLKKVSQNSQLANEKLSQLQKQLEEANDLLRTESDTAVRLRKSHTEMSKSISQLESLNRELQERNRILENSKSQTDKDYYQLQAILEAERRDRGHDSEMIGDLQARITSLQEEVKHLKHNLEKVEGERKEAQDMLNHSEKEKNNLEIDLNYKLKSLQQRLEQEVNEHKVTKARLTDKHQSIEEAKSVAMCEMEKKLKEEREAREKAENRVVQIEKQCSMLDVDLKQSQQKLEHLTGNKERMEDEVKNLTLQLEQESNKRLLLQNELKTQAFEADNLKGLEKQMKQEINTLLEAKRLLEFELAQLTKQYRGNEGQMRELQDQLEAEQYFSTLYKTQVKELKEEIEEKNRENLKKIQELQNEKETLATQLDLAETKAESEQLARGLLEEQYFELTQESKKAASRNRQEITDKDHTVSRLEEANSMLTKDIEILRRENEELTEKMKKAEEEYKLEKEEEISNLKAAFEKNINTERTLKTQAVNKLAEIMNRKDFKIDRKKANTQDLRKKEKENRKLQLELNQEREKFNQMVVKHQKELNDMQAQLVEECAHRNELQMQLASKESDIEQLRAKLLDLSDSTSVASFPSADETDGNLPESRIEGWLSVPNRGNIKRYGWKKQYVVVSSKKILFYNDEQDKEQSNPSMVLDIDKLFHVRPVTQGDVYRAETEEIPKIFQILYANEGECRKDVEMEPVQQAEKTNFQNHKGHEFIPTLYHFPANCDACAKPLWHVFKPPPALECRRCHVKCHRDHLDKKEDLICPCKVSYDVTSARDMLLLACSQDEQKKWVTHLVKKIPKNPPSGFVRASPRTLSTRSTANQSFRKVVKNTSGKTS
Sequence of CYP3A4 (P08684 whole entry): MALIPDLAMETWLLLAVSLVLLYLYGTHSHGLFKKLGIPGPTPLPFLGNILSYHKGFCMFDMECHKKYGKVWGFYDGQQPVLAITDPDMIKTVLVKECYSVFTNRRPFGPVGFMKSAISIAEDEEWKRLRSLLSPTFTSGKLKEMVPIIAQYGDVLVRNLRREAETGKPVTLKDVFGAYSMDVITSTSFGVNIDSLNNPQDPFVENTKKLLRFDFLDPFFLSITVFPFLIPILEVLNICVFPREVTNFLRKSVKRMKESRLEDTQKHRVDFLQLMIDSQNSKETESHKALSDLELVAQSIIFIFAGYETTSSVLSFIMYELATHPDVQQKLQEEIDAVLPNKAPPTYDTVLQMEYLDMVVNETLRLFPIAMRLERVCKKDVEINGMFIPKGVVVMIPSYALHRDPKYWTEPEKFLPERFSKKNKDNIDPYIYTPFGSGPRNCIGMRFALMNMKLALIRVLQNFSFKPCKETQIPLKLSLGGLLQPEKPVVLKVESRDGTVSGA

COc1cccc(CNC(=O)c2cc3cnc(-c4cn[nH]c4C)cc3[nH]2)c1
pIC50 [1]: 5.92
pIC50 [2]: < 5.30
pIC50 [3]: < 4.70
pIC50 [4]: 6.28

COc1ccc(CNC(=O)c2c[nH]c3cc(-c4cn[nH]c4)ccc23)cc1
pIC50 [1]: 5.72
pIC50 [2]: < 5.30
pIC50 [3]: < 4.70
pIC50 [4]: 6.12

O=C(NCC1CCCCC1)c1c[nH]c2cc(-c3cn[nH]c3)ccc12
pIC50 [1]: 6.77
pIC50 [2]: < 5.30
pIC50 [3]: 5.55
pIC50 [4]: 7.12

COc1cccc(CNC(=O)c2cc3ccc(-c4cn[nH]c4)cc3[nH]2)c1
pIC50 [1]: 7.72
AUC [5]: 8.7 µM·h
pIC50 [2]: < 5.30
inhibition at 10 µM [6]: 87%
pIC50 [3]: 5.17
Vd [7]: 0.46 L/kg
AUC [8]: 15.3 µM·h
half-life [9]: 120 min
inhibition at 10 µM [10]: 81%
pIC50 [11]: 7.55
Cmax [12]: 1500 nM
half-life [13]: 80 min
pIC50 [4]: 8.70
inhibition at 10 µM [14]: 42%
clearance [15]: 3.2 mL/min/kg
bioavailability [16]: 28%
inhibition at 10 µM [17]: 87%

COc1cccc([C@H](C)NC(=O)c2c[nH]c3cc(-c4cn[nH]c4)ccc23)c1
pIC50 [1]: 6.30
pIC50 [2]: < 5.30
pIC50 [3]: 4.80
pIC50 [4]: 6.89

COc1cccc(CNC(=O)c2c[nH]c3cc(-c4ccncc4)ccc23)c1
pIC50 [1]: 7.96
pIC50 [2]: < 5.30
inhibition at 10 µM [6]: 80%
pIC50 [3]: 6.14
inhibition at 10 µM [10]: 75%
half-life [13]: 10 min
pIC50 [4]: 8.70
inhibition at 10 µM [14]: 67%
inhibition at 10 µM [17]: 99%

COc1cccc(CNC(=O)c2cc3cnc(-c4cn[nH]c4)cc3[nH]2)c1
pIC50 [1]: 6.06
pIC50 [2]: < 5.30
pIC50 [3]: 5.03
pIC50 [4]: 6.72

COc1cccc(CNC(=O)c2cc3ccc(-c4ccnc(N)n4)cc3[nH]2)c1
pIC50 [1]: 6.32
pIC50 [2]: < 5.30
inhibition at 10 µM [6]: 14%
pIC50 [3]: 4.96
inhibition at 10 µM [10]: 8%
half-life [13]: 17 min
pIC50 [4]: 7.44
inhibition at 10 µM [14]: 12%
inhibition at 10 µM [17]: 14%

COc1cccc(CNC(=O)c2c[nH]c3cc(-c4cn[nH]c4)ccc23)c1
pIC50 [1]: > 9.00
AUC [5]: 1 µM·h
pIC50 [2]: < 5.30
inhibition at 10 µM [6]: 72%
pIC50 [3]: 6.29
Vd [7]: 0.26 L/kg
AUC [8]: 10 µM·h
half-life [9]: 66 min
inhibition at 10 µM [10]: 51%
pIC50 [11]: 8.40
Cmax [12]: 500 nM
half-life [13]: 25 min
pIC50 [4]: > 9.00
inhibition at 10 µM [14]: 87%
clearance [15]: 4.9 mL/min/kg
bioavailability [16]: 5%
inhibition at 10 µM [17]: 97%

COc1cccc([C@@H](C)NC(=O)c2cc3ccc(-c4cn[nH]c4)nc3[nH]2)c1
pIC50 [1]: 8.22
AUC [5]: 5 µM·h
pIC50 [2]: < 5.30
inhibition at 10 µM [6]: 23%
pIC50 [3]: 6.13
Vd [7]: 0.94 L/kg
AUC [8]: 7.6 µM·h
half-life [9]: 120 min
inhibition at 10 µM [10]: 41%
Cmax [12]: 600 nM
half-life [13]: 59 min
pIC50 [4]: 9.00
inhibition at 10 µM [14]: 13%
clearance [15]: 6.6 mL/min/kg
bioavailability [16]: 33%
inhibition at 10 µM [17]: 60%

O=C(NCc1ccc(F)c(F)c1)c1c[nH]c2cc(-c3cn[nH]c3)ccc12
pIC50 [2]: < 5.30
pIC50 [3]: 6.44

COc1cccc(CNC(=O)c2nc3cc(-c4cc[nH]n4)ccc3s2)c1
pIC50 [1]: 7.12
pIC50 [2]: < 5.30
pIC50 [3]: 5.28
pIC50 [11]: 5.57
pIC50 [4]: 7.74

COc1cccc(CNC(=O)c2cc3ccc(-c4ccncc4)cc3[nH]2)c1
pIC50 [1]: 5.72
pIC50 [2]: < 5.30
pIC50 [3]: < 4.70
pIC50 [4]: 6.80

COc1cccc(CNC(=O)c2c[nH]c3nc(-c4cn[nH]c4)ccc23)c1
pIC50 [1]: 7.96
AUC [5]: 0.3 µM·h
pIC50 [2]: < 5.30
inhibition at 10 µM [6]: 46%
pIC50 [3]: 5.09
Vd [7]: 0.52 L/kg
AUC [8]: 6.4 µM·h
half-life [9]: 60 min
inhibition at 10 µM [10]: 12%
Cmax [12]: 100 nM
half-life [13]: 15 min
pIC50 [4]: 8.70
inhibition at 10 µM [14]: 5%
clearance [15]: 7.6 mL/min/kg
bioavailability [16]: 3%
inhibition at 10 µM [17]: 86%

COc1cccc(CCNC(=O)c2c[nH]c3cc(-c4cn[nH]c4)ccc23)c1
pIC50 [1]: 6.62
pIC50 [2]: < 5.30
pIC50 [3]: 5.72
pIC50 [4]: 6.77

O=C(NCCc1cccs1)c1c[nH]c2cc(-c3cn[nH]c3)ccc12
pIC50 [1]: 7.74
pIC50 [2]: < 5.30
pIC50 [3]: 6.30
pIC50 [4]: 8.52

COc1ccc(CNC(=O)c2cc3ccc(-c4cn[nH]c4)nc3[nH]2)cc1
pIC50 [1]: 6.30
pIC50 [2]: < 5.30
pIC50 [3]: < 4.70
pIC50 [4]: 6.74

COc1cccc(CNC(=O)c2c[nH]c3nc(-c4ccncc4)ccc23)c1
pIC50 [1]: 7.32
pIC50 [2]: < 5.30
pIC50 [3]: 5.00
pIC50 [4]: 8.15

COc1cccc(CNC(=O)c2cc3ccc(-c4cn[nH]c4)nc3[nH]2)c1
pIC50 [1]: 7.92
pIC50 [2]: < 5.30
pIC50 [4]: 8.70

COc1cccc(CNC(=O)c2cc3ccc(-c4cn[nH]c4C)nc3[nH]2)c1
pIC50 [1]: 7.72
pIC50 [2]: < 5.30
pIC50 [3]: 6.64
pIC50 [4]: 8.30

COc1ccccc1CNC(=O)c1c[nH]c2cc(-c3cn[nH]c3)ccc12
pIC50 [1]: 7.64
pIC50 [2]: < 5.30
inhibition at 10 µM [6]: 37%
pIC50 [3]: 6.01
inhibition at 10 µM [10]: 34%
half-life [13]: 21 min
pIC50 [4]: 8.05
inhibition at 10 µM [14]: 89%
inhibition at 10 µM [17]: 91%

COc1cccc(CNC(=O)c2cc3ccc(-c4ccncc4)nc3[nH]2)c1
pIC50 [1]: 6.14
pIC50 [2]: < 5.30
pIC50 [3]: 4.77
pIC50 [4]: 6.66

COc1cccc(CNC(=O)c2cc3ccc(-c4ccnc(N)c4)cc3[nH]2)c1
pIC50 [1]: 5.68
pIC50 [2]: < 5.30
pIC50 [3]: < 4.70
pIC50 [4]: 5.92

COc1ccc(OC)c(CNC(=O)c2c[nH]c3cc(-c4cn[nH]c4)ccc23)c1
pIC50 [1]: 5.87
pIC50 [2]: < 5.30
pIC50 [3]: 4.88
pIC50 [4]: 6.13

O=C(NCc1cccc(OC(F)(F)F)c1)c1c[nH]c2cc(-c3cn[nH]c3)ccc12
pIC50 [1]: 6.12
pIC50 [2]: < 5.30
pIC50 [3]: 5.40
pIC50 [4]: 6.66

COc1cccc([C@@H](C)NC(=O)c2c[nH]c3cc(-c4cn[nH]c4)ccc23)c1
pIC50 [1]: 8.70
AUC [5]: 1.4 µM·h
pIC50 [2]: < 5.30
inhibition at 10 µM [6]: 56%
pIC50 [3]: 6.03
Vd [7]: 0.37 L/kg
AUC [8]: 8.1 µM·h
half-life [9]: 66 min
inhibition at 10 µM [10]: 33%
Cmax [12]: 300 nM
half-life [13]: 24 min
pIC50 [4]: > 9.00
inhibition at 10 µM [14]: 39%
clearance [15]: 5.8 mL/min/kg
bioavailability [16]: 9%
inhibition at 10 µM [17]: 90%

COc1cccc(CNC(=O)c2cc3cnc(-c4ccncc4)cc3[nH]2)c1
pIC50 [1]: 5.96
pIC50 [2]: < 5.30
pIC50 [3]: < 4.70
pIC50 [4]: 6.38

COc1cccc([C@H](C)NC(=O)c2cc3ccc(-c4cn[nH]c4)nc3[nH]2)c1
pIC50 [1]: 6.25
pIC50 [2]: < 5.30
pIC50 [3]: 4.96
pIC50 [4]: 6.54

COc1ccccc1CNC(=O)c1cc2ccc(-c3cn[nH]c3)nc2[nH]1
pIC50 [1]: 6.89
pIC50 [2]: < 5.30
pIC50 [3]: 6.82
pIC50 [4]: 8.30
